Tests used:
[1] = biological target: T1, Glycine max (soybean) EPSP synthase DGT-1 variant DGT-1 v8 (T→I, P→S; TIPS) (Glycine max, UniProt I1J7U9, P187S/T183I); assay: In vitro kinetic assay (inorganic phosphate production, malachite green); assay type: biochemical
T1 sequence (I1J7U9 with tags, fused parts or gaps T183I/P187S): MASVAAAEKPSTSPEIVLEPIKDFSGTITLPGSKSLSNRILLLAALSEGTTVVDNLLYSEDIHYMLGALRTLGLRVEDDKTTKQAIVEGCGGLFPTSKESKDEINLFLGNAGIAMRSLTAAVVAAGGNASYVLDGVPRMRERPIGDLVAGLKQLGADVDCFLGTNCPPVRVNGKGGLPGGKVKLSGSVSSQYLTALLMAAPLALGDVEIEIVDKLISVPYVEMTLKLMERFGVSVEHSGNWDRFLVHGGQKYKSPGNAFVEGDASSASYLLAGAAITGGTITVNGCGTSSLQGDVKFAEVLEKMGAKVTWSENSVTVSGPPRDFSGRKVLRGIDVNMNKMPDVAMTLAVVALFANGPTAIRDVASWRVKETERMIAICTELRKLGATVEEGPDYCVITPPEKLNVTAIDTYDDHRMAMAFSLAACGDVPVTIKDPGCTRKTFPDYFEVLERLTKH
Text: The following Class I enzymes: DGT-1 from Glycine max, DGT-3 from Brassica napus (GENBANK ACC NO: P17688), and DGT-7 from Triticum aestivum (GENBANK ACC NO: EU977181) were used as a comparison. The Class I EPSP synthase enzymes and mutant variants thereof were synthesized and evaluated. A mutation introduced into the plant EPSP synthase enzymes consisted of the Glycine to Alanine mutation made within the EPSP synthase enzyme at a similar location as that of the G96A mutation from the E. coli version of the enzyme. In addition, Threonine to Isoleucine and Proline to Serine mutations were introduced within these Class I EPSP synthase enzymes at analogous positions as that of amino acid 97 (T to I) and amino acid 101 (P to S) in the EPSP synthase of E. coli as described in Funke et al., (2009).
The location of the amino acid residue which was mutated from glycine to alanine is indicated by the first asterisk. The location of the amino acid residue which was mutated from threonine to isoleucine is indicated by the second asterisk. The location of the third amino acid residue which was mutated from proline to serine is indicated by the third asterisk. These mutations were introduced into different versions of DGT-1, DGT-3, and DGT-7. The different versions of the genes which contain the mutations are described in more detail below.
Additional constructs containing the dgt-1, dgt-3 and dgt-7 were synthesized. These constructs were used for in vitro testing of the dgt-1 v5, dgt-1 v6, dgt-1 v7, dgt-1 v8, dgt-3 v6, dgt-3 v7, dgt-3 v8, dgt-7 v5, dgt-7 v6, dgt-7 v7, and dgt-7 v8 gene sequences were outsourced to GeneArt for synthesis and cloning. The synthesized genes were cloned into the pET28 expression vector. The resulting constructions were labeled as pDAB102028 containing dgt-1 v5, pDAB102029 containing dgt-1 v6, pDAB102032 containing dgt-1 v7, pDAB102034 containing dgt-1 v8, pDAB100429 containing dgt-3 v6, pDAB100442 containing dgt-3 v7, pDAB100430 containing dgt-3 v8, pDAB102036 containing dgt-7 v5, pDAB102038 containing dgt-7 v6, pDAB102040 containing dgt-7 v7, and pDAB102042 containing dgt-7 v8.
(§1) Recombinant DGT proteins were overexpressed in Rosetta2™ (DE3) cells (Novagen, Madison, Wis.) from the constructs described above. A single colony was used to inoculate 50 mL starter cultures of LB containing chloramphenicol (25 μg/mL) and kanamycin (50 μg/mL) which were cultivated overnight at 37° C. The overnight cultures were used to inoculate 1 L of LB containing chloramphenicol (25 μg/mL) and kanamycin (50 μg/mL). The cultures were grown at 37° C. to an O.D.600=0.6 then placed in an ice water bath for 10 minutes. Expression of the target proteins was achieved by addition of IPTG to a final concentration of 500 μM. Induction was allowed to proceed overnight at 20° C. followed by harvesting via centrifugation at 8,000 rpm for 20 minutes. The cell pellets were stored at −80° C. until required for purification. All purification steps were carried out at 4° C.
Cell pellets from 1 L cultures were resuspended in 20-30 mL Buffer A (50 mM HEPES pH 7.5, 150 mM KCl, 2 mM DTT, 1 mM EDTA, 20 mM imidazole, and 5% glycerol). COMPLETE™ protease inhibitor cocktail (1 tablet/50 mL, Roche, Indianapolis, Ind.) and lysozyme (1 mg/mL, Sigma-Aldrich, St. Louis, Mo.) were then added and the suspension was stirred for 20 minutes. Cell lysis was performed using a Branson Sonifier 250 (3×60 second bursts) followed by removal of the cell debris by centrifugation at 16,000 rpm for 45 minutes. DGT enzymes were purified to homogeneity in one step via immobilized metal affinity chromatography (IMAC) using a 5 mL HisTrap FF crude column. The column was equilibrated in Buffer A and the sample was loaded in the same buffer. The column was then washed with 10 column volumes of Buffer A followed by elution in a 0-100% Buffer B (50 mM HEPES pH 7.5, 200 mM KCl, 2 mM DTT, 1 mM EDTA, 500 mM imidazole, and 5% glycerol) linear gradient over 25 column volumes. […]

[2] = test system: bacterial EPSP synthase DGT-12 (GENBANK ZP_01622155.1) variant DGT-12 v6 (G→A at residue 111), SEQ ID NO:7; assay: as above; assay type: biochemical
Text: The novel DGT-14, DGT-12, DGT-18, DGT-29 and DGT-30 enzymes were obtained and the glycine to alanine mutation was introduced into the EPSP synthase enzymes at a location analogous to the G96A location described for the E. coli version of the EPSP synthase enzyme. The DGT-14 protein sequence was modified by introducing an alanine to replace the endogenous glycine of GENBANK ACC NO: ZP_01452683 at amino acid residue 101, thereby resulting in SEQ ID NO:1. The DGT-12 protein sequence was modified by introducing an alanine to replace the endogenous glycine of GENBANK ACC NO: ZP_01622155.1 at amino acid residue 111, thereby resulting in SEQ ID NO:7. The DGT-18 protein sequence was modified by introducing an alanine to replace the endogenous glycine of GENBANK ACC NO: NP_928909.1 at amino acid residue 96, thereby resulting in SEQ ID NO:9. The DGT-29 protein sequence was modified by introducing an alanine to replace the endogenous glycine of GENBANK ACC NO: YP_322772.1 at amino acid residue 96, thereby resulting in SEQ ID NO:11. The DGT-30 protein sequence was modified by introducing an alanine to replace the endogenous glycine of GENBANK ACC NO: ZP_02156189.1 at amino acid residue 96, thereby resulting in SEQ ID NO:13.
The synthesized genes were cloned into the pET28 expression vector.
as §1, with “The cell pellets were stored at −80° C. until required for purification. All purification steps were carried out at 4° C.” left out

C=C(OP(=O)(O)O)C(=O)O [PEP, phosphoenolpyruvate]
kcat/Km ([1]; PEP, pH 7.5, 1 mM S3P): 12300 M⁻¹ s⁻¹ | kcat/Km ([2]; PEP, pH 7.5, 1 mM S3P): 700 M⁻¹ s⁻¹ | Km ([2]; read-out: Km for PEP, pH 7.5, 1 mM S3P): 128 µM

O=C(O)CNCP(=O)(O)O [glyphosate, N-(phosphonomethyl)glycine]
IC50 ([1]; IC50 (glyphosate), at 60 μM PEP): 5.9 mM | IC50 ([1]; IC50 (glyphosate), at 1 mM PEP): 13.3 mM | IC50 ([1]; tolerance to glyphosate, PEP concentration not given): 3 to 6 mM | IC50 ([2]; at 1 mM PEP, read-out: IC50 (glyphosate)): 4 mM
